Test results taken from publication PMC9551036, “A selective and orally bioavailable VHL-recruiting PROTAC achieves SMARCA2 degradation in vivo” (Nature Communications, 2022).
“And” between values parts separate entries of the source, which are not always exact repeats. Identical values can stand only once. Like-named read-outs stand apart in the source and are kept apart here.

How the values were obtained:
VCB complex = target: T1, VCB complex (Homo sapiens, UniProt P40337); assay: SPR binary binding to immobilised VCB complex
T1 construct: His6 (TEV site) (N, cleaved yes); made in house
T1 sequence (P40337 54-213): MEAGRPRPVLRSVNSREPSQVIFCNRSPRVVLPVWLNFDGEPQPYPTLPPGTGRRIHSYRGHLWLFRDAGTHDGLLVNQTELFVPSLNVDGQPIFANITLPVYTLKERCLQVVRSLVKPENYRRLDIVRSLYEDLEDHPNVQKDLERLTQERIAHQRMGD
T1 sequence (Q15369 17-112 partner limits assumed): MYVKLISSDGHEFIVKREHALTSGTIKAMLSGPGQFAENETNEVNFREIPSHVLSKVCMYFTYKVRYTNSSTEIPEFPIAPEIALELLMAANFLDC
T1 sequence (Q15370 1-104 partner limits assumed): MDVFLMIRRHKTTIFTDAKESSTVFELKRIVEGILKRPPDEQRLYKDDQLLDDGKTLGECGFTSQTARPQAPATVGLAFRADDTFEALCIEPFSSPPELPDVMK
Method: (§1) SMARCA4^BD was provided by the Structural Genomics Consortium (SGC), Toronto[32] and SMARCA2^BD and PRM1^BD5 were synthesised by GeneArt then subcloned into pDEST15 vectors (Invitrogen). The VCB complex was expressed and purified as described previously, with the modification that 0.3 mM IPTG was used for induction of expression. […] Both were stored in 20 mM 4-(2-hydroxyethyl)−1-piperazineethanesulfonic acid (HEPES), 150 mM sodium chloride and 1 mM tris(2-carboxyethyl)phosphine (TCEP) pH 7.5. SMARCA2^BD, SMARCA4^BD and PBRM1^BD5 were expressed in Escherichia coli BL21(DE3) as N-terminal GST fusion proteins with a TEV protease cleavage site. Expression and purification of these proteins has been described previously[32],[33]. Starter cultures were grown overnight at 37 °C in 10 mL of Luria-Bertani (LB) medium with ampicillin (100 μg/mL). The starter cultures were diluted (1:100) in Terrific Broth (TB) medium with ampicillin (100 μg/mL) and grown in a shaking incubator at 37 °C to an optical density (OD600) ~1 before the temperature was lowered for induction (to 23 °C for SMARCA2^BD or 18 °C for SMARCA4^BD and PRRM1^BD5). […] Cells were harvested by centrifugation and stored at −80 °C prior to purification. […] The Lysis buffers were as follows: for SMARCA2^BD: 50 mM HEPES, 500 mM sodium chloride, 5% glycerol, 5 mM dithiothreitol (DTT); for SMARCA4^BD: 25 mM HEPES, 0.3 M sodium chloride, 5% glycerol, 10 mM DTT, pH 7.5; for PBRM1^BD5: 25 mM HEPES, 300 mM sodium chloride, 5% glycerol, 10 mM DTT, pH 7.8; in each case supplemented with complete protease inhibitors (Roche). Affinity purification was performed using Glutathione Sepharose 4B (GE Healthcare) in batch mode or on-column. […] For SMARCA2^BD, prior to TEV protease cleavage the eluted GST-tagged BD was first dialysed into desalting buffer (20 mM HEPES, 250 mM sodium chloride, pH 7.0 + 0.5% glycerol). Where TEV cleavage was performed in solution, a second affinity (GST-trap) column purification step was carried out to remove the GST-tag and uncleaved GST-tagged protein. Proteins were further purified by SEC (HiLoad Superdex-75, 16/600) (GE Healthcare) and stored in Storage buffer (for SMARCA2^BD: 20 mM HEPES, 150 mM sodium chloride, pH 7.5; for SMARCA4^BD: 10 mM HEPES, 0.5 M NaCl, 5% glycerol, pH 7.5; for PBRM1^BD5: 20 mM HEPES, 300 mM NaCl, 5 mM DTT, pH 7.8). For AlphaScreen assays, eluted GST-tagged BDs were purified directly by SEC in the respective storage buffers without TEV cleavage. All chromatography purification steps were performed either at room temperature or 4 °C using an ÄKTA FPLC purification system (GE Healthcare) or a plastic Econo-Pac column (Bio-Rad).
(§2) SPR data were acquired on Biacore 8K or T200 instruments (Cytiva). Target proteins were immobilised at 25 °C on CM5 chips by amine coupling (EDC/NHS, Cytiva) in HBS-P+ running buffer (pH 7.4), containing 2 mM TCEP. […] The reference surface was subsequently deactivated using 1 M ethanolamine. […] Biotinylated VCB was prepared as previously described[27]: in brief, the complex was mixed 1:1 with EZ-Link NHS–PEG4–biotin (Thermo Scientific) and incubated at room temperature for 1 h. Unreacted NHS-biotin was removed using a PD-10 desalting column (Cytiva) into 20 mM HEPES, pH 7.5, 150 mM sodium chloride and 1 mM DTT. The reference surface was generated by deactivating the EDC/NHS-treated surface with 1 M ethanolamine. All interaction experiments were done at 6 °C in running buffer (20 mM TRIS, pH 8.3, 150 mM potassium chloride, 2 mM magnesium chloride, 2 mM TCEP, 0.005% TWEEN 20, 1% dimethyl sulfoxide). For ternary complex measurements, a sensor chip surface with VCB immobilised was used (preparation as described above). Experiments were run in dual-inject mode with 10 µM SMARCA present during the injection and dissociation phase. Sensorgrams from reference surfaces and blank injections were subtracted from the raw data prior to data analysis using Biacore Insight software.

Microsomal stability = assay type: in vitro ADME; conditions: for Mic. Stab. Human / Mic. Stab. Human QH: human liver microsomes; for Mic. Stab. Mouse / Mic. Stab. Mouse QH: mouse liver microsomes; for Mic. Stab. Rat / Mic. Stab. Rat QH: rat liver microsomes
Method: […] Reactions were terminated by addition of acetonitrile and precipitates separated by centrifugation. Compound concentrations in supernatants were measured by HPLC-MS/MS and clearance was calculated from compound half-lives using the well-stirred liver model.

SMARCA2^BD = target: T2, SMARCA2^BD (Homo sapiens, UniProt P51531); assay: SPR binding to immobilised SMARCA2 bromodomain; conditions: SPR, read-out: SMARCA2 KD
T2 construct: P51531-2, residues 1373-1493 with additional N-terminal SM residues; GST (TEV site) (N, cleaved yes); made in house; host or cells: Escherichia coli BL21(DE3)
T2 sequence (P51531 1373-1493 isoform P51531-2): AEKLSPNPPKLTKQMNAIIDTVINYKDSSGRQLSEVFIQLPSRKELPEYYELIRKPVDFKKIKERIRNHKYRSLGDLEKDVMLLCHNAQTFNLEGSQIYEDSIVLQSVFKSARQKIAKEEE
Method: as §1, §2

[1] = test system: VCB: PROTAC: SMARCA2^BD ternary complex; assay: TR-FRET ternary complex affinity and cooperativity, SMARCA2; assay type: binding, human; conditions: ratio TR-FRET EC50 / TR-FRET EC50 +VCB measured in the same run, SMARCA2BD
[2] = binary binding to VCB, mean ± SD

Compound	Kd (VCB complex; [2]) [nM]	Kd (VCB complex; binary, individual replicates)	Mic. Stab. Human (Microsomal stability) [% QH]	Mic. Stab. Human QH (Microsomal stability)	Mic. Stab. Mouse (Microsomal stability) [% QH]	Mic. Stab. Mouse QH (Microsomal stability)	Mic. Stab. Rat (Microsomal stability) [% QH]	Mic. Stab. Rat QH (Microsomal stability)	Kd (SMARCA2^BD; SMARCA2BD, mean ± SD) [nM]	Kd (SMARCA2^BD; individual replicates)	cooperativity α (SMARCA2BD) [1]
Cc1ncsc1-c1ccc(CNC(=O)[C@@H]2C[C@@H](O)CN2C(=O)[C@@H](NC(=O)C2(F)CC2)C(C)(C)C)c(OCCOCCOCCN2CCC(c3ccc4c(c3)n(C3CCCC3)c3nc(=O)c5c(Br)cccc5n43)CC2)c1 [compound 21]	21 ± 5	19.9 nM and 27 nM and 21.6 nM and 15.2 nM	87 ± 10	92.470% and 92.660% and 75.300%	56 ± 10	62.650% and 61.360% and 44.780%	45 ± 13	57.680% and 45.850% and 32.500%	680 ± 121	650 nM and 814 nM and 577 nM	1.9 ± 0.1
Cc1ncsc1-c1ccc(CNC(=O)[C@@H]2C[C@@H](O)CN2C(=O)[C@@H](NC(=O)C2(F)CC2)C(C)(C)C)c(OCCOCCOCCOCCN2CCC(c3ccc4c(c3)n(C3CCCC3)c3nc(=O)c5c(Br)cccc5n43)CC2)c1 [compound 22]	39 ± 16	31.8 nM and 62.9 nM and 29.3 nM and 33 nM	83 ± 13	92.060% and 73.150%	58	57.720%	40	40.440%	1100 ± 433	1570 nM and 715 nM and 1020 nM	2.8 ±0.8
Cc1ncsc1-c1ccc(CNC(=O)[C@@H]2C[C@@H](O)CN2C(=O)[C@@H](NC(=O)C2(F)CC2)C(C)(C)C)c(OCCCCN2CCC(c3ccc4c(c3)n(C3CCCC3)c3nc(=O)c5c(Br)cccc5n43)CC2)c1 [compound 23]	16 ± 8	11.5 nM and 28.1 nM and 12.3 nM and 10.9 nM	78	78.440%	42	42.090%	<23	<23.080%	94 ± 11	102 nM and 81.3 nM and 98.3 nM	0.7 ± 0.3
Cc1ncsc1-c1ccc([C@H](CCCCN2CCC(c3ccc4c(c3)n(C3CCCC3)c3nc(=O)c5c(Br)cccc5n43)CC2)NC(=O)[C@@H]2C[C@@H](O)CN2C(=O)[C@@H](NC(=O)C2(F)CC2)C(C)(C)C)cc1 [compound 25]	6 ± 1	6.94 nM and 6.43 nM and 5.3 nM	25	24.800%	<24	<24.200%	<23	<23.100%	93 ± 3	95.4 nM and 90.4 nM and 94 nM	2.2 ± 0.6
Cc1ncsc1-c1ccc([C@H](COCCN2CCC(c3ccc4c(c3)n(C3CCCC3)c3nc(=O)c5c(Br)cccc5n43)CC2)NC(=O)[C@@H]2C[C@@H](O)CN2C(=O)[C@@H](NC(=O)C2(N(C)C)CC2)C(C)(C)C)cc1 [compound 26]	76 ± 46	55.5 nM and 144 nM and 50.1 nM and 53.4 nM	86 ± 0.3	86.500% and 86.000% and 86.480%	>88	> 88.400% and 90.900%	58 ± 3	60.400% and 54.700% and 57.700%	118 ± 5	119 nM and 123 nM and 113 nM	5.8 ± 1.9
Cc1ncsc1-c1ccc([C@H](COCCCN2CCC(c3ccc4c(c3)n(C3CCCC3)c3nc(=O)c5c(Br)cccc5n43)CC2)NC(=O)[C@@H]2C[C@@H](O)CN2C(=O)[C@@H](NC(=O)C2(F)CC2)C(C)(C)C)cc1 [compound 27]	12 ± 9	8.51 nM and 25.4 nM and 6.56 nM and 9 nM	43 ± 5	46.200% and 38.900%	<25	24.700% and < 24.200%	<23	<23.100 <23.100%	217 ± 30	244 nM and 185 nM and 221 nM	3.3 ± 0.8
Cc1ncsc1-c1ccc([C@H](COC(C)(C)CN2CCC(c3ccc4c(c3)n(C3CCCC3)c3nc(=O)c5c(Br)cccc5n43)CC2)NC(=O)[C@@H]2C[C@@H](O)CN2C(=O)[C@@H](NC(=O)C2(F)CC2)C(C)(C)C)cc1 [compound 28]	55 ± 29	50.4 nM and 131 nM and 47.1 nM and 49.5 nM and 39.6 nM and 49.4 nM and 39.8 nM and 43.6 nM and 44.9 nM	57 ± 4	51.200% and 55.600% and 59.900% and 60.900%	<24	< 24.200% and 25.800%	<23	< 23.100% and 29.700%	196 ± 3	199 nM and 193 nM and 195 nM	3.8 ± 0.4
Cc1ncsc1-c1ccc([C@H](CC[C@@H](C)CCN2CCC(c3ccc4c(c3)n(C3CCCC3)c3nc(=O)c5c(Br)cccc5n43)CC2)NC(=O)[C@@H]2C[C@@H](O)CN2C(=O)[C@@H](NC(=O)C2(F)CC2)C(C)(C)C)cc1 [compound 29]	13 ± 7	21.3 nM and 18.2 nM and 7.09 nM and 8.27 nM and 5.72 nM and 14.8 nM	<24	<24.400 <24.400%	<24	<24.200 <24.200%	<23	<23.100 <23.100%	255 ± 42	304 nM and 227 nM and 235 nM	6.4 ± 1.1
Cc1ncsc1-c1ccc([C@H](CCC(C)(C)CCN2CCC(c3ccc4c(c3)n(C3CCCC3)c3nc(=O)c5c(Br)cccc5n43)CC2)NC(=O)[C@@H]2C[C@@H](O)CN2C(=O)[C@@H](NC(=O)C2(F)CC2)C(C)(C)C)cc1 [compound 30]	29 ± 8	38.3 nM and 25.5 nM and 32.6 nM and 21 nM	<24	<24.400 <24.400%	<24	<24.200%	<23	<23.100 <23.100%	325 ± 31	290 nM and 351 nM and 333 nM	5.9 ± 1.9
